Patent US10954228B2 (NATIONAL INSTITUTES OF HEALTH, UNITED STATES DEPARTMENT OF …, priority 2016, dated 2021)

Experiments:
Human LDHA = Human LDHA (Homo sapiens (Human), UniProt P00338); assay: human LDHA primary biochemical assay; details: biochemical LDHA inhibitory activity, assay of Example 1; activity level classes defined in nM
Procedure, shortened: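 Human LDHA at 2 nM with 0.06 mM NADH and 0.2 mM sodium pyruvate in 200 mM Tris HCl pH 7.4, 100 μM EDTA, 0.01% TWEEN-20 (final). NADH consumption coupled to resazurin/diaphorase (0.037 mM; 0.133 mg/mL); inhibition read by fluorescence.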

MiaPaCa2 cells = assay: cell-based HT lactate assay by colorimetric/fluorometric detection (cellular inhibition of lactate production); details: Homo sapiens, MIA PaCa-2, assay of Example 6
Procedure, shortened: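 Miniaturised colorimetric/fluorometric lactate kit assay, about 3.5 h total, measuring cellular lactate production. MiaPaCa2 seeded at 500 cells/well, a density chosen so lactate falls near 90% of the standard curve range.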

SMILES	IC50 (Human LDHA)	IC50 (MiaPaCa2 cells)
NS(=O)(=O)c1ccc(Cc2c(-c3ccc(F)c(-c4cc(F)cc(F)c4)c3)nn(-c3nc(C(=O)O)cs3)c2CC2CC2)cc1F [Compound 156, 2-(5-(cyclopropylmethyl)-4-(3-fluoro-4-sulfamoylbenzyl)-3-(3′,5′,6-trifluoro-[1,1′-biphenyl]-3-yl)-1H-pyrazol-1-yl)thiazole-4-carboxylic acid]	< 100 nM	< 1000 nM
NS(=O)(=O)c1ccc(Cc2c(-c3ccc(F)c(-c4cc(Cl)cc(Cl)c4)c3)nn(-c3nc(C(=O)O)cs3)c2CC2CC2)cc1F [Compound 157, 2-(5-(cyclopropylmethyl)-3-(3′,5′-dichloro-6-fluoro-[1,1′-biphenyl]-3-yl)-4-(3-fluoro-4-sulfamoylbenzyl)-1H-pyrazol-1-yl)thiazole-4-carboxylic acid]	100 to 1000 nM	< 1000 nM
CC(C)(C)c1ccc(-c2cccc(-c3nn(-c4nc(C(=O)O)cs4)c(CC4CC4)c3Cc3ccc(S(N)(=O)=O)c(F)c3)c2)cc1 [Compound 168, 2-(3-(4′-(tert-butyl)-[1,1′-biphenyl]-3-yl)-5-(cyclopropylmethyl)-4-(3-fluoro-4-sulfamoylbenzyl)-1H-pyrazol-1-yl)thiazole-4-carboxylic acid]	100 to 1000 nM	< 1000 nM
NS(=O)(=O)c1ccc(Cc2c(-c3cccc(-c4ccc5c(c4)CCCC5)c3)nn(-c3nc(C(=O)O)cs3)c2CC2CC2)cc1F [Compound 174, 2-(5-(cyclopropylmethyl)-4-(3-fluoro-4-sulfamoylbenzyl)-3-(3-(5,6,7,8-tetrahydronaphthalen-2-yl)phenyl)-1H-pyrazol-1-yl)thiazole-4-carboxylic acid]	100 to 1000 nM	> 57000 nM
N#Cc1ccc(-c2cccc(-c3nn(-c4nc(C(=O)O)cs4)c(CC4CC4)c3Cc3ccc(S(N)(=O)=O)c(F)c3)c2)cc1 [Compound 176, 2-(3-(4′-cyano-[1,1′-biphenyl]-3-yl)-5-(cyclopropylmethyl)-4-(3-fluoro-4-sulfamoylbenzyl)-1H-pyrazol-1-yl)thiazole-4-carboxylic acid]	< 100 nM	> 57000 nM
NS(=O)(=O)c1ccc(Cc2c(-c3cccc(-c4cc(F)cc(F)c4)c3)nn(-c3nc(C(=O)O)cs3)c2CC2CC2)cc1F [Compound 177, 2-(5-(cyclopropylmethyl)-3-(3′,5′-difluoro-[1,1′-biphenyl]-3-yl)-4-(3-fluoro-4-sulfamoylbenzyl)-1H-pyrazol-1-yl)thiazole-4-carboxylic acid]	< 100 nM	> 57000 nM
CN(C)c1ccc(-c2cccc(-c3nn(-c4nc(C(=O)O)cs4)c(CC4CC4)c3Cc3ccc(S(N)(=O)=O)c(F)c3)c2)cc1 [Compound 178, 2-(5-(cyclopropylmethyl)-3-(4′-(dimethylamino)-[1,1′-biphenyl]-3-yl)-4-(3-fluoro-4-sulfamoylbenzyl)-1H-pyrazol-1-yl)thiazole-4-carboxylic acid]	< 100 nM	> 57000 nM
Cc1ccc(C#Cc2cccc(-c3nn(-c4nc(C(=O)NC#N)cs4)c(CC4CC4)c3Cc3ccc(S(N)(=O)=O)c(F)c3)c2)s1 [Compound 179, N-cyano-2-(5-(cyclopropylmethyl)-4-(3-fluoro-4-sulfamoylbenzyl)-3-(3-((5-methylthiophen-2-yl)ethynyl)phenyl)-1H-pyrazol-1-yl)thiazole-4-carboxamide]	1000 to 57000 nM	> 57000 nM

Next, values leading:

IC50 (Human LDHA)	IC50 (MiaPaCa2 cells)	SMILES
< 100 nM	< 1000 nM	NS(=O)(=O)c1ccc(Cc2c(-c3cccc(-c4ccc(Cl)c(F)c4)c3)nn(-c3nc(C(=O)O)cs3)c2CC2CC2)cc1F [Compound 164, 2-(3-(4′-chloro-3′-fluoro-[1,1′-biphenyl]-3-yl)-5-(cyclopropylmethyl)-4-(3-fluoro-4-sulfamoylbenzyl)-1H-pyrazol-1-yl)thiazole-4-carboxylic acid]
< 100 nM	< 1000 nM	COc1ccc(-c2cccc(-c3nn(-c4nc(C(=O)O)cs4)c(CC4CC4)c3Cc3ccc(S(N)(=O)=O)c(F)c3)c2)cc1C [Compound 165, 2-(5-(cyclopropylmethyl)-4-(3-fluoro-4-sulfamoylbenzyl)-3-(4′-methoxy-3′-methyl-[1,1′-biphenyl]-3-yl)-1H-pyrazol-1-yl) thiazole-4-carboxylic acid]
< 100 nM	< 1000 nM	NS(=O)(=O)c1ccc(Cc2c(-c3cccc(-c4ccc(Cl)cc4)c3)nn(-c3nc(C(=O)O)cs3)c2CC2CC2)cc1F [Compound 166, 2-(3-(4′-chloro-[1,1′-biphenyl]-3-yl)-5-(cyclopropylmethyl)-4-(3-fluoro-4-sulfamoylbenzyl)-1H-pyrazol-1-yl)thiazole-4-carboxylic acid]
< 100 nM	< 1000 nM	Cc1ccc(-c2cccc(-c3nn(-c4nc(C(=O)O)cs4)c(CC4CC4)c3Cc3ccc(S(N)(=O)=O)c(F)c3)c2)cc1F [Compound 167, 2-(5-(cyclopropylmethyl)-3-(3′-fluoro-4′-methyl-[1,1′-biphenyl]-3-yl)-4-(3-fluoro-4-sulfamoylbenzyl)-1H-pyrazol-1-yl)thiazole-4-carboxylic acid]
< 100 nM	< 1000 nM	CC(C)c1ccc(-c2cccc(-c3nn(-c4nc(C(=O)O)cs4)c(CC4CC4)c3Cc3ccc(S(N)(=O)=O)c(F)c3)c2)cc1 [Compound 169, 2-(5-(cyclopropylmethyl)-4-(3-fluoro-4-sulfamoylbenzyl)-3-(4′-isopropyl-[1,1′-biphenyl]-3-yl)-1H-pyrazol-1-yl)thiazole-4-carboxylic acid]
< 100 nM	> 57000 nM	CC(C)c1cccc(-c2cccc(-c3nn(-c4nc(C(=O)O)cs4)c(CC4CC4)c3Cc3ccc(S(N)(=O)=O)c(F)c3)c2)c1 [Compound 173, 2-(5-(cyclopropylmethyl)-4-(3-fluoro-4-sulfamoylbenzyl)-3-(3′-isopropyl-[1,1′-biphenyl]-3-yl)-1H-pyrazol-1-yl)thiazole-4-carboxylic acid]
< 100 nM	> 57000 nM	NS(=O)(=O)c1ccc(Cc2c(-c3cccc(-c4cccc(Cl)c4)c3)nn(-c3nc(C(=O)O)cs3)c2CC2CC2)cc1F [Compound 175, 2-(3-(3′-chloro-[1,1′-biphenyl]-3-yl)-5-(cyclopropylmethyl)-4-(3-fluoro-4-sulfamoylbenzyl)-1H-pyrazol-1-yl)thiazole-4-carboxylic acid]
